Data: article PMC5118696, “Identification of inhibitors that dually target the new permeability pathway and dihydroorotate dehydrogenase in the blood stage of Plasmodium falciparum” (Scientific Reports, 2016)

target: T1, PfDHODH (dihydroorotate dehydrogenase) (Plasmodium falciparum, UniProt Q08210); assay: DCIP reduction enzyme assay with recombinant PfDHODH; IC50 extrapolated, inhibition did not reach […]; assay type: biochemical; settings: not given
T1 construct: gene PFF0160c; amino acids 169–569
T1 sequence (Q08210 169-569): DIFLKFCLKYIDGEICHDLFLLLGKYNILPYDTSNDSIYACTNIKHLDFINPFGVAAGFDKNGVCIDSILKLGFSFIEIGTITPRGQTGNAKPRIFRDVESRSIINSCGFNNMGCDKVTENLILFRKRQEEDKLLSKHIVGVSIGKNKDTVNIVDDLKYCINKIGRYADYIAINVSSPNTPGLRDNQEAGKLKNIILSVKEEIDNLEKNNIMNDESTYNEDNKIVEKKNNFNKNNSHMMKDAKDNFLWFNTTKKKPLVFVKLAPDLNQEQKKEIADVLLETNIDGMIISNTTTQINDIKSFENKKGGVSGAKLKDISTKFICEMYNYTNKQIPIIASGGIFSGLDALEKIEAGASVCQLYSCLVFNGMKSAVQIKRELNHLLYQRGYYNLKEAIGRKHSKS

Row | SMILES | IC50 [µM]
1 | Cc1ccc(CSCc2ccc(C(=O)NC3CC3)o2)cc1 [MMV007571] | ~158

system: Hyp1-NLuc Plasmodium falciparum-infected erythrocytes (new permeability pathway, NPP); assay: microbe, parasite or virus in culture; settings: Erythrocyte, 0.33 h, read-out: % of control remaining

Row | SMILES | activity at 2 µM [%]
2 | Cc1ccc(CSCc2ccc(C(=O)NC3CC3)o2)cc1 [MMV007571] | 26
3 | COCCNC(=O)c1ccc(OC2CCN(Cc3ccc(F)c(F)c3)CC2)c(Cl)c1 [MMV666072] | 115
4 | COc1ccc(CCN2CCC(CN(C)Cc3cnn(-c4ccccc4)c3)CC2)cc1 [MMV666069] | 105
5 | Fc1ccc2[nH]c3c(NCCCN4CCOCC4)ncnc3c2c1 [MMV019871] | 102
6 | O=C(Nc1ccc(CN2CCOCC2)cc1)c1ccc(-c2cc(Cl)ccc2Cl)o1 [MMV020651] | 103
7 | CC(=O)c1sc(NC(=O)Nc2ccc(C)cc2C)nc1C [MMV665894] | 93
8 | Nc1ccc(-c2nc3cc(Cc4ccc5[nH]c(-c6ccc(N)cc6)nc5c4)ccc3[nH]2)cc1 [MMV665943] | 51.7
9 | CCOC(=O)C1=CN(C)C=C(C(=O)OCC)C1c1cc(Br)c(OCC)c(OC)c1 [MMV006656] | 102
10 | COc1ccccc1CNC(=O)CCn1c(=O)[nH]c2ccsc2c1=O [MMV019066] | 96.9
11 | c1ccc(Cn2c(N=Nc3c(Nc4ccccc4)ccc4ccccc34)nc3ccccc32)cc1 [MMV666023] | 101
12 | COc1ccc(C(=O)NC(c2ccccc2Cl)c2cc(Cl)c3cccnc3c2O)cc1 (stereo not drawn) [MMV666022] | 113
13 | O=C(NCC(c1ccsc1)N1CCCCCC1)c1ccc(C(F)(F)F)cc1 (stereo not drawn) [MMV396672] | 98.1
14 | COc1ccc2c(c1)C1(Nc3ccccc3-c3nc4ccccc4n31)C(=O)N2 (stereo not drawn) [MMV396749] | 104
15 | CC1(c2ccccc2)Nc2ccccc2-c2nc3ccccc3n21 (stereo not drawn) [MMV396715] | 100
16 | CCOc1ccc(-n2cc(-c3ccccc3)c3c(SCc4cc(C)ccc4C)ncnc32)cc1 [MMV085471] | 118
17 | CCOC(=O)c1c(C)n(-c2ccccc2)c2ccc(OC(=O)c3cc(OC)c(OC)c(OC)c3)cc12 [MMV396664] | 97.3
18 | CCc1ccc(CNCC(O)c2ccccc2)cc1 (stereo not drawn) [MMV665812] | 96.2
19 | CCOc1ccc(-c2nc(NC(=O)c3cccc(S(C)(=O)=O)c3)sc2C)cc1 [MMV665913] | 106
20 | O=C(NCc1ccco1)C1CCN(S(=O)(=O)c2ccc(Cl)cc2)CC1 [MMV006188] | 112
21 | CCN(CC)CCNc1ccnc2cc(Cl)ccc12 [MMV006087] | 105
22 | O=C(Nc1ccc(-c2nc3cc4ccccc4cc3[nH]2)cc1)c1cccc(Br)c1 [MMV019241] | 113
23 | Oc1c(C(Nc2ccccn2)c2cccc(Oc3ccccc3)c2)ccc2cccnc12 (stereo not drawn) [MMV665814] | 98.6
24 | COc1cccc(Cn2c(Oc3ccccc3)nc3c2c(=O)n(C)c(=O)n3C)c1 [MMV396705] | 101
25 | O=c1nc(C=Cc2ccc(Cl)cc2)oc2ccccc12 [MMV007977] | 105
26 | CCCCN(CCCC)S(=O)(=O)c1ccc(NC(=O)c2ccco2)cc1 [MMV007881] | 96.9

Row | SMILES | activity at 2 µM [%]
27 | COc1cccc(Nc2nc(N)c3ccccc3n2)c1 [MMV019199] | 97.7
28 | CCOC(=O)C1(Cc2ccccc2)CCN(Cc2cccc(OC)c2O)CC1 [MMV666109] | 97.9
29 | Oc1ccccc1CN1CCC2(CCCN(Cc3ccccc3F)C2)C1 (stereo not drawn) [MMV666116] | 106
30 | Cc1cc(C)c2nc(N3CCC(C(=O)NCCCN4CCC(N5CCCCC5)CC4)CC3)sc2c1 [MMV019780] | 111
31 | CCOc1cc(Cl)c(C(C)NC(=O)c2ccccc2)cc1OCC (stereo not drawn) [MMV665800] | 111
32 | CCCCOC(=O)c1ccc(Nc2cc(C)nc3ccc(OC)cc23)cc1 [MMV665797] | 107
33 | COc1ccc2c(=O)cc(C(Cl)(Cl)Cl)oc2c1 [MMV665820] | 102
34 | Cc1cc(C)cc(Nc2cc(C)nc3nc(C(F)(F)F)nn23)c1 [MMV011259] | 98.6
35 | CN1CCN(c2ncnc3c2[nH]c2ccc(Cl)cc23)CC1 [MMV396704] | 95.6
36 | Cc1ccc(C(=O)c2oc3ccc4c(C)cc(=O)oc4c3c2C)cc1 [MMV086103] | 95.7
37 | CCCCCCc1cc2cc(-c3csc(C=Cc4ccccc4)n3)c(=O)oc2cc1O [MMV666692] | 99.2
38 | CCn1c2c(c(=N)c3c1CCC3)CCCC2 [MMV000340] | 104
39 | COc1ccccc1N1CCN(C(CNS(=O)(=O)c2ccc(Cl)cc2)c2cccnc2)CC1 (stereo not drawn) [MMV665914] | 97.5
40 | COc1ccc(N2CCN(C(CNC(=O)CC(C)(C)C)c3ccc4c(c3)OCO4)CC2)cc1 (stereo not drawn) [MMV665908] | 97.1
41 | Clc1ccc2[nH]c3c(NCCCN4CCOCC4)ncnc3c2c1 [MMV006587] | 102
42 | Cc1ccc(C)c(-c2csc(Nc3ccc(C)c(C)c3)n2)c1 [MMV007654] | 91.8
43 | CCOc1ccccc1NC(=O)CN1CCN(C(=O)c2ccco2)CC1 [MMV007791] | 108
44 | Cc1cc(N2CCCC2)nc(Nc2ccc(NC(=O)CCc3ccccc3)cc2)n1 [MMV396669] | 76.3
45 | COc1ccc(C=C2SC(=N)N(c3ccccc3OC)C2=O)cc1 [MMV666691] | 26.4
46 | COc1cc(CNCCc2ccc(Cl)cc2)cc(OC)c1O [MMV128432] | 97.8
47 | Cc1sc2ncnc(Sc3nc4ccccc4[nH]3)c2c1C [MMV019266] | 109
48 | Cc1cccc(N2C(=O)C3C(C2=O)C2(c4ccccc4)C(=O)C3(c3ccccc3)C(c3ccc4c(c3)OCO4)=C2c2ccc3c(c2)OCO3)c1 (stereo not drawn) [MMV007228] | 107
49 | COc1cccc(Nc2nc(NCCO)c3ccccc3n2)c1 [MMV011944] | 101
50 | COc1ccc(C(C)=O)cc1N1C(=O)C2C(C1=O)C1(c3ccccc3)C(=O)C2(c2ccccc2)C(c2ccc(C)cc2)=C1c1ccc(C)cc1 (stereo not drawn) [MMV007695] | 98.4

system: Hyp1-NLuc Plasmodium falciparum-infected erythrocytes (new permeability pathway, NPP); assay: microbe, parasite or virus in culture; settings: Erythrocyte, 0.33 h, read-out: Mean RLU at 28 min (As % of DMSO control)

Row | SMILES | activity at 2 µM [%]
51 | Cc1ccc(CSCc2ccc(C(=O)NC3CC3)o2)cc1 [MMV007571] | 22
52 | COCCNC(=O)c1ccc(OC2CCN(Cc3ccc(F)c(F)c3)CC2)c(Cl)c1 [MMV666072] | 103
53 | COc1ccc(CCN2CCC(CN(C)Cc3cnn(-c4ccccc4)c3)CC2)cc1 [MMV666069] | 102
54 | Fc1ccc2[nH]c3c(NCCCN4CCOCC4)ncnc3c2c1 [MMV019871] | 106
55 | O=C(Nc1ccc(CN2CCOCC2)cc1)c1ccc(-c2cc(Cl)ccc2Cl)o1 [MMV020651] | 105
56 | CC(=O)c1sc(NC(=O)Nc2ccc(C)cc2C)nc1C [MMV665894] | 99.8
57 | Nc1ccc(-c2nc3cc(Cc4ccc5[nH]c(-c6ccc(N)cc6)nc5c4)ccc3[nH]2)cc1 [MMV665943] | 64.3
58 | CCOC(=O)C1=CN(C)C=C(C(=O)OCC)C1c1cc(Br)c(OCC)c(OC)c1 [MMV006656] | 105
59 | COc1ccccc1CNC(=O)CCn1c(=O)[nH]c2ccsc2c1=O [MMV019066] | 98.8
60 | c1ccc(Cn2c(N=Nc3c(Nc4ccccc4)ccc4ccccc34)nc3ccccc32)cc1 [MMV666023] | 102
61 | COc1ccc(C(=O)NC(c2ccccc2Cl)c2cc(Cl)c3cccnc3c2O)cc1 (stereo not drawn) [MMV666022] | 104
62 | O=C(NCC(c1ccsc1)N1CCCCCC1)c1ccc(C(F)(F)F)cc1 (stereo not drawn) [MMV396672] | 101
63 | COc1ccc2c(c1)C1(Nc3ccccc3-c3nc4ccccc4n31)C(=O)N2 (stereo not drawn) [MMV396749] | 103
64 | CC1(c2ccccc2)Nc2ccccc2-c2nc3ccccc3n21 (stereo not drawn) [MMV396715] | 102
65 | CCOc1ccc(-n2cc(-c3ccccc3)c3c(SCc4cc(C)ccc4C)ncnc32)cc1 [MMV085471] | 104
66 | CCOC(=O)c1c(C)n(-c2ccccc2)c2ccc(OC(=O)c3cc(OC)c(OC)c(OC)c3)cc12 [MMV396664] | 94.9
67 | CCc1ccc(CNCC(O)c2ccccc2)cc1 (stereo not drawn) [MMV665812] | 95.4
68 | CCOc1ccc(-c2nc(NC(=O)c3cccc(S(C)(=O)=O)c3)sc2C)cc1 [MMV665913] | 98.8
69 | O=C(NCc1ccco1)C1CCN(S(=O)(=O)c2ccc(Cl)cc2)CC1 [MMV006188] | 106
70 | CCN(CC)CCNc1ccnc2cc(Cl)ccc12 [MMV006087] | 107
71 | O=C(Nc1ccc(-c2nc3cc4ccccc4cc3[nH]2)cc1)c1cccc(Br)c1 [MMV019241] | 103
72 | Oc1c(C(Nc2ccccn2)c2cccc(Oc3ccccc3)c2)ccc2cccnc12 (stereo not drawn) [MMV665814] | 98.8
73 | COc1cccc(Cn2c(Oc3ccccc3)nc3c2c(=O)n(C)c(=O)n3C)c1 [MMV396705] | 102
74 | O=c1nc(C=Cc2ccc(Cl)cc2)oc2ccccc12 [MMV007977] | 110
75 | CCCCN(CCCC)S(=O)(=O)c1ccc(NC(=O)c2ccco2)cc1 [MMV007881] | 104

Row | SMILES | activity at 2 µM [%]
76 | COc1cccc(Nc2nc(N)c3ccccc3n2)c1 [MMV019199] | 98.1
77 | CCOC(=O)C1(Cc2ccccc2)CCN(Cc2cccc(OC)c2O)CC1 [MMV666109] | 93.9
78 | Oc1ccccc1CN1CCC2(CCCN(Cc3ccccc3F)C2)C1 (stereo not drawn) [MMV666116] | 100
79 | Cc1cc(C)c2nc(N3CCC(C(=O)NCCCN4CCC(N5CCCCC5)CC4)CC3)sc2c1 [MMV019780] | 107
80 | CCOc1cc(Cl)c(C(C)NC(=O)c2ccccc2)cc1OCC (stereo not drawn) [MMV665800] | 100
81 | CCCCOC(=O)c1ccc(Nc2cc(C)nc3ccc(OC)cc23)cc1 [MMV665797] | 104
82 | COc1ccc2c(=O)cc(C(Cl)(Cl)Cl)oc2c1 [MMV665820] | 105
83 | Cc1cc(C)cc(Nc2cc(C)nc3nc(C(F)(F)F)nn23)c1 [MMV011259] | 101
84 | CN1CCN(c2ncnc3c2[nH]c2ccc(Cl)cc23)CC1 [MMV396704] | 95.9
85 | Cc1ccc(C(=O)c2oc3ccc4c(C)cc(=O)oc4c3c2C)cc1 [MMV086103] | 94.6
86 | CCCCCCc1cc2cc(-c3csc(C=Cc4ccccc4)n3)c(=O)oc2cc1O [MMV666692] | 102
87 | CCn1c2c(c(=N)c3c1CCC3)CCCC2 [MMV000340] | 105
88 | COc1ccccc1N1CCN(C(CNS(=O)(=O)c2ccc(Cl)cc2)c2cccnc2)CC1 (stereo not drawn) [MMV665914] | 102
89 | COc1ccc(N2CCN(C(CNC(=O)CC(C)(C)C)c3ccc4c(c3)OCO4)CC2)cc1 (stereo not drawn) [MMV665908] | 92.5
90 | Clc1ccc2[nH]c3c(NCCCN4CCOCC4)ncnc3c2c1 [MMV006587] | 116
91 | Cc1ccc(C)c(-c2csc(Nc3ccc(C)c(C)c3)n2)c1 [MMV007654] | 94.4
92 | CCOc1ccccc1NC(=O)CN1CCN(C(=O)c2ccco2)CC1 [MMV007791] | 106
93 | Cc1cc(N2CCCC2)nc(Nc2ccc(NC(=O)CCc3ccccc3)cc2)n1 [MMV396669] | 90.3
94 | COc1ccc(C=C2SC(=N)N(c3ccccc3OC)C2=O)cc1 [MMV666691] | 61.9
95 | COc1cc(CNCCc2ccc(Cl)cc2)cc(OC)c1O [MMV128432] | 97.7
96 | Cc1sc2ncnc(Sc3nc4ccccc4[nH]3)c2c1C [MMV019266] | 109
97 | Cc1cccc(N2C(=O)C3C(C2=O)C2(c4ccccc4)C(=O)C3(c3ccccc3)C(c3ccc4c(c3)OCO4)=C2c2ccc3c(c2)OCO3)c1 (stereo not drawn) [MMV007228] | 99.5
98 | COc1cccc(Nc2nc(NCCO)c3ccccc3n2)c1 [MMV011944] | 101
99 | COc1ccc(C(C)=O)cc1N1C(=O)C2C(C1=O)C1(c3ccccc3)C(=O)C2(c2ccccc2)C(c2ccc(C)cc2)=C1c1ccc(C)cc1 (stereo not drawn) [MMV007695] | 98.9
